In the assay the target is T1, Indoleamine 2,3-dioxygenase 1 (IDO1) (Homo sapiens, UniProt P14902).
T1 construct: recombinant human IDO1, N-His-tag, expressed in E. coli
In words: methylene blue/ascorbate assay of purified recombinant IDO1, HPLC; Lineweaver-Burk kinetics. The format is biochemical.

As usually defined, the IC50 is the concentration that inhibits the measured activity by half.

T1 sequence (P14902 whole entry): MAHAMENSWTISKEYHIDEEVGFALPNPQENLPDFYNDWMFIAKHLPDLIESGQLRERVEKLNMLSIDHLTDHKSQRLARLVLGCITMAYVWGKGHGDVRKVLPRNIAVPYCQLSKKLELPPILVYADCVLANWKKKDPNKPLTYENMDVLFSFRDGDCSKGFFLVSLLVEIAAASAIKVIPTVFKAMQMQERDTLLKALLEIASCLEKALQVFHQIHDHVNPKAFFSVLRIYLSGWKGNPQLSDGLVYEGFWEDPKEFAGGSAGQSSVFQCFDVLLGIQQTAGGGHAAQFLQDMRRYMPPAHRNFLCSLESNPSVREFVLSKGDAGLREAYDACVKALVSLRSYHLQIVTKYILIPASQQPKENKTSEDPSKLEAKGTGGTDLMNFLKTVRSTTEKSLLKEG

As for galanal, the IC50 worked out at 7.7 µM.
